From ChEMBL document CHEMBL2434921, “New synthetic aliphatic sulfonamido-quaternary ammonium salts as anticancer chemotherapeutic agents” (2013)
Activity calls are given as the source filed them. No cut-off for these calls is given here.

Experiments:
NUGC-3 [1] = assay: Growth of human NUGC3 cells at 1 uM after 48 hrs by SRB assay; details: NUGC-3, 48 h
NUGC-3 [2] = assay: Growth inhibition of human NUGC3 cells after 48 hrs by SRB assay; format: functional; details: NUGC-3, 48 h
PC-3 [3] = assay: Growth inhibition of human PC3 cells at 0.1 uM after 48 hrs by SRB assay; values are per cent of control; details: PC-3, 48 h
NCI-H23 [4] = assay: Growth of human NCI-H23 cells at 0.3 uM after 48 hrs by SRB assay; details: NCI-H23, 48 h
NCI-H23 [5] = assay: Growth of human NCI-H23 cells at 10 uM after 48 hrs by SRB assay; details: NCI-H23, 48 h
PC-3 [6] = assay: Growth of human PC3 cells at 10 uM after 48 hrs by SRB assay; details: PC-3, 48 h
ACHN [7] = assay: Growth of human ACHN cells at 0.3 uM after 48 hrs by SRB assay
[8] = target: Rho-related GTP-binding protein RhoB (Homo sapiens) (UniProt P62745); assay: Transactivation of RhoB (unknown origin) transfected in human HeLa cells at 5 uM measured over 10 secs by dual luciferase reporter gene assay; format: cell-based
Rho-related GTP-binding protein RhoB (Homo sapiens), sequence (P62745 whole entry): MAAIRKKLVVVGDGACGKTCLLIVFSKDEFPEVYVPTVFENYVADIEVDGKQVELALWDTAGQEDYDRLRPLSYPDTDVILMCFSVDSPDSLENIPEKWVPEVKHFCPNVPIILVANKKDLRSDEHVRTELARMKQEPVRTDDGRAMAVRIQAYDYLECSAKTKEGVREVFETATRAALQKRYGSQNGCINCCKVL

HCT-15 [9] = assay: Growth inhibition of human HCT15 cells after 48 hrs by SRB assay; format: functional; details: HCT-15, 48 h
ACHN [10] = assay: Growth inhibition of human ACHN cells at 3 uM after 48 hrs by SRB assay; values are per cent of control
MDA-MB-231 [11] = assay: Growth inhibition of human MDA-MB-231 cells at 0.3 uM after 48 hrs by SRB assay; values are per cent of control; details: MDA-MB-231, 48 h
MDA-MB-231 [12] = assay: Growth of human MDA-MB-231 cells at 10 uM after 48 hrs by SRB assay; details: MDA-MB-231, 48 h
NUGC-3 [13] = assay: Growth of human NUGC3 cells at 0.1 uM after 48 hrs by SRB assay; details: NUGC-3, 48 h
PC-3 [14] = assay: Growth inhibition of human PC3 cells at 0.3 uM after 48 hrs by SRB assay; values are per cent of control; details: PC-3, 48 h
HCT-15 [15] = assay: Growth inhibition of human HCT15 cells at 10 uM after 48 hrs by SRB assay; values are per cent of control; details: HCT-15, 48 h
ACHN [16] = assay: Growth inhibition of human ACHN cells at 1 uM after 48 hrs by SRB assay; values are per cent of control
HCT-15 [17] = assay: Growth inhibition of human HCT15 cells at 1 uM after 48 hrs by SRB assay; values are per cent of control; details: HCT-15, 48 h
ACHN [18] = assay: Growth inhibition of human ACHN cells after 48 hrs by SRB assay; format: functional
MDA-MB-231 [19] = assay: Growth inhibition of human MDA-MB-231 cells after 48 hrs by SRB assay; format: functional; details: MDA-MB-231, 48 h
NUGC-3 [20] = assay: Growth inhibition of human NUGC3 cells at 3 uM after 48 hrs by SRB assay; values are per cent of control; details: NUGC-3, 48 h
PC-3 [21] = assay: Growth inhibition of human PC3 cells at 3 uM after 48 hrs by SRB assay; values are per cent of control; details: PC-3, 48 h
HCT-15 [22] = assay: Growth inhibition of human HCT15 cells at 0.1 uM after 48 hrs by SRB assay; values are per cent of control; details: HCT-15, 48 h
NCI-H23 [23] = assay: Growth inhibition of human NCI-H23 cells at 3 uM after 48 hrs by SRB assay; values are per cent of control; details: NCI-H23, 48 h
NUGC-3 [24] = assay: Growth of human NUGC3 cells at 0.3 uM after 48 hrs by SRB assay; details: NUGC-3, 48 h
PC-3 [25] = assay: Growth inhibition of human PC3 cells after 48 hrs by SRB assay; format: functional; details: PC-3, 48 h
MDA-MB-231 [26] = assay: Growth of human MDA-MB-231 cells at 1 uM after 48 hrs by SRB assay; details: MDA-MB-231, 48 h
MDA-MB-231 [27] = assay: Growth of human MDA-MB-231 cells at 0.1 uM after 48 hrs by SRB assay; details: MDA-MB-231, 48 h
NUGC-3 [28] = assay: Growth inhibition of human NUGC3 cells at 10 uM after 48 hrs by SRB assay; values are per cent of control; details: NUGC-3, 48 h
NCI-H23 [29] = assay: Growth inhibition of human NCI-H23 cells after 48 hrs by SRB assay; format: functional; details: NCI-H23, 48 h
PC-3 [30] = assay: Growth inhibition of human PC3 cells at 1 uM after 48 hrs by SRB assay; values are per cent of control; details: PC-3, 48 h
NCI-H23 [31] = assay: Growth inhibition of human NCI-H23 cells at 0.1 uM after 48 hrs by SRB assay; values are per cent of control; details: NCI-H23, 48 h
HCT-15 [32] = assay: Growth of human HCT15 cells at 3 uM after 48 hrs by SRB assay; details: HCT-15, 48 h
HCT-15 [33] = assay: Growth of human HCT15 cells at 0.3 uM after 48 hrs by SRB assay; details: HCT-15, 48 h
NCI-H23 [34] = assay: Growth inhibition of human NCI-H23 cells at 1 uM after 48 hrs by SRB assay; values are per cent of control; details: NCI-H23, 48 h
MDA-MB-231 [35] = assay: Growth of human MDA-MB-231 cells at 3 uM after 48 hrs by SRB assay; values are per cent of control; details: MDA-MB-231, 48 h
ACHN [36] = assay: Growth of human ACHN cells at 10 uM after 48 hrs by SRB assay
ACHN [37] = assay: Growth of human ACHN cells at 0.1 uM after 48 hrs by SRB assay

| Activity [8] | GI50 (HCT-15 [9]) [µM] | GI50 (ACHN [18]) [µM] | GI50 (MDA-MB-231 [19]) [µM] | SMILES | growth, % of control at 1 µM (NUGC-3 [1]) [%] | GI50 (NUGC-3 [2]) [µM] | growth, % of control at 0.1 µM (PC-3 [3]) [%] | growth, % of control at 0.3 µM (NCI-H23 [4]) [%] | growth, % of control at 10 µM (NCI-H23 [5]) [%] | growth, % of control at 10 µM (PC-3 [6]) [%] | growth, % of control at 0.3 µM (ACHN [7]) [%] | growth, % of control at 3 µM (ACHN [10]) [%] | growth, % of control at 0.3 µM (MDA-MB-231 [11]) [%] | growth, % of control at 10 µM (MDA-MB-231 [12]) [%] | growth, % of control at 0.1 µM (NUGC-3 [13]) [%] | growth, % of control at 0.3 µM (PC-3 [14]) [%] | growth, % of control at 10 µM (HCT-15 [15]) [%] | growth, % of control at 1 µM (ACHN [16]) [%] | growth, % of control at 1 µM (HCT-15 [17]) [%] | growth, % of control at 3 µM (NUGC-3 [20]) [%] | also measured |
| --- | --- | --- | --- | --- | --- | --- | --- | --- | --- | --- | --- | --- | --- | --- | --- | --- | --- | --- | --- | --- | --- |
| Active | 1.26 | 1.75 | 0.54 | CCCCCCCCCCCCCCCCS(=O)(=O)N(C)CC[N+](C)(C)CC | 30 | 0.36 | 91.4 | 78.3 | 13.5 | -18.7 | 93.9 | 52.7 | 77.8 | -3.8 | 88 | 87.3 | 26.7 | 77.8 | 69.7 | 17.2 | growth, % of control at 3 µM (PC-3 [21]): 14.2%; growth, % of control at 0.1 µM (HCT-15 [22]): 101%; growth, % of control at 3 µM (NCI-H23 [23]): 61.6%; growth, % of control at 0.3 µM (NUGC-3 [24]): 81.3%; GI50 (PC-3 [25]): 0.57 µM; growth, % of control at 1 µM (MDA-MB-231 [26]): 51.9%; growth, % of control at 0.1 µM (MDA-MB-231 [27]): 75.8%; growth, % of control at 10 µM (NUGC-3 [28]): 4%; GI50 (NCI-H23 [29]): 1.81 µM; growth, % of control at 1 µM (PC-3 [30]): 54.1%; growth, % of control at 0.1 µM (NCI-H23 [31]): 80.8%; growth, % of control at 3 µM (HCT-15 [32]): 35.2%; growth, % of control at 0.3 µM (HCT-15 [33]): 98.4%; growth, % of control at 1 µM (NCI-H23 [34]): 84%; growth, % of control at 3 µM (MDA-MB-231 [35]): 36.5%; growth, % of control at 10 µM (ACHN [36]): 21.5%; growth, % of control at 0.1 µM (ACHN [37]): 96.2% |
| Active | 1.7 | 2.6 | 2.11 | CCCCCCCCCCCCCCS(=O)(=O)NCC(C)(C)C[N+](C)(C)C | 35.9 | 0.32 | 76.1 | 76.8 | -30.5 | -0.3 | 84.8 | 57.1 | 88.5 | 31 | 81.8 | 73.8 | 19.4 | 79.4 | 89.2 | 8.9 | growth, % of control at 3 µM (PC-3 [21]): 9.8%; growth, % of control at 0.1 µM (HCT-15 [22]): 98.1%; growth, % of control at 3 µM (NCI-H23 [23]): 1.5%; growth, % of control at 0.3 µM (NUGC-3 [24]): 75.5%; GI50 (PC-3 [25]): 0.35 µM; growth, % of control at 1 µM (MDA-MB-231 [26]): 77.6%; growth, % of control at 0.1 µM (MDA-MB-231 [27]): 94.3%; growth, % of control at 10 µM (NUGC-3 [28]): -8.2%; GI50 (NCI-H23 [29]): 0.31 µM; growth, % of control at 1 µM (PC-3 [30]): 46%; growth, % of control at 0.1 µM (NCI-H23 [31]): 88.5%; growth, % of control at 3 µM (HCT-15 [32]): 48.2%; growth, % of control at 0.3 µM (HCT-15 [33]): 94.3%; growth, % of control at 1 µM (NCI-H23 [34]): 31.4%; growth, % of control at 3 µM (MDA-MB-231 [35]): 55.9%; growth, % of control at 10 µM (ACHN [36]): 37.4%; growth, % of control at 0.1 µM (ACHN [37]): 91.3% |
